Data as given in BindingDB's records for doi:10.1016/j.bmcl.2003.09.058 (Pharmacor, 2003).

These molecules were tested against T1, Dimer of Gag-Pol polyprotein [501-599] (Human immunodeficiency virus 1, UniProt P03367) (assay: Protease Inhibition Assay). Settings: pH 4.7; 30 °C.
T1 construct: 501-599
Method: HIV-1 protease activity was measured by a continuous fluorometric assay using the internally quenched fluorogenic substrate DABCYL-Ser-Gln-Asn-Tyr-Pro-Ile-Val-Gln-EDANS. The proteolytic activity can be monitored by the increase in fluorescence intensity, and the protease products were analyzed by HPLC.
Molecule `Cc1ccc(S(=O)(=O)N(CC(C)C)[C@@H](CCCCNC(=O)Cc2ccccc2)C(=O)O)cc1` [(2S)-2-[(4-methylbenzene)(2-methylpropyl)sulfonamido]-6-(1-phenylacetamido)hexanoic acid] has a Ki greater than 300 nM.
In the case of `Cc1ccc(S(=O)(=O)N(CC(C)C)[C@@H](CCCCNC(=O)CCCc2ccccc2)C(=O)O)cc1` [(2S)-2-[(4-methylbenzene)(2-methylpropyl)sulfonamido]-6-(4-phenylbutanamido)hexanoic acid], the Ki is reported as greater than 300 nM.
Molecule `Cc1ccc(S(=O)(=O)N(CC(C)C)[C@@H](CCCCNC(=O)c2ccccc2)C(=O)O)cc1` [(2S)-2-[(4-methylbenzene)(2-methylpropyl)sulfonamido]-6-(phenylformamido)hexanoic acid] has a Ki greater than 300 nM.
`Cc1ccc(S(=O)(=O)N(CC(C)C)[C@@H](CCCCNC(=O)C2CC2c2ccccc2)C(=O)O)cc1` (stereo partly drawn) [(2S)-2-[(4-methylbenzene)(2-methylpropyl)sulfonamido]-6-[(2-phenylcyclopropyl)formamido]hexanoic acid] gave a Ki greater than 300 nM.
With `Cc1ccc(S(=O)(=O)N(CC(C)C)[C@@H](CCCCNC(=O)/C=C/c2ccccc2)C(=O)O)cc1` [(2S)-2-[(4-methylbenzene)(2-methylpropyl)sulfonamido]-6-[(2E)-3-phenylprop-2-enamido]hexanoic acid] the Ki was greater than 300 nM.
In the case of `Cc1ccc(S(=O)(=O)N(CC(C)C)[C@@H](CCCCNC(=O)C(Cc2ccccc2)C(C)(C)C)C(=O)O)cc1` (stereo partly drawn) [(2S)-6-(2-benzyl-3,3-dimethylbutanamido)-2-[(4-methylbenzene)(2-methylpropyl)sulfonamido]hexanoic acid], the Ki is reported as greater than 300 nM.
With `Cc1ccc(S(=O)(=O)N(CC(C)C)[C@@H](CCCCNC(=O)OCc2ccccc2)C(=O)O)cc1` [(2S)-6-{[(benzyloxy)carbonyl]amino}-2-[(4-methylbenzene)(2-methylpropyl)sulfonamido]hexanoic acid] the Ki was greater than 300 nM.
